The target in one experiment is T1, WT TRAAK (Homo sapiens, UniProt Q9NYG8).
T1 construct: expressed in transfected cells; host or cells: Xenopus laevis oocytes (cRNA injection), excised inside-out patches
T1 sequence (Q9NYG8 1-393): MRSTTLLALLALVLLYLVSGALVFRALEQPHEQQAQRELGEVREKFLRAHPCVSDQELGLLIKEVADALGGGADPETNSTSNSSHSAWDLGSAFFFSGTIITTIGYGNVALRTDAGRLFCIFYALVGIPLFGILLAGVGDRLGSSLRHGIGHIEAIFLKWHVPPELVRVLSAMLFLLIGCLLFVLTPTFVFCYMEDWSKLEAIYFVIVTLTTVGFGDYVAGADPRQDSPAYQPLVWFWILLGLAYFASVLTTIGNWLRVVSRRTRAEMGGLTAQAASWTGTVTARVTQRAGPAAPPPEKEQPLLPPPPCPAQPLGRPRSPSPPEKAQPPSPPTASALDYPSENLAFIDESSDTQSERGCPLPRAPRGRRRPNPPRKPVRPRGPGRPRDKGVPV
Description: MTS probe modification, inside-out patch-clamp. Type of experiment: cell-based. The settings on record: 100 µM decyl-MTS for at least 30 s, symmetrical K+, pH 7.4, +40 mV. On the procedure:
First, we measured WT TREK-1, WT TRAAK and TREK-2^* channels without modifiable cysteine residues as references. Upon application of 100 µM of decyl-MTS for at least 30 s to the respective channel in excised membrane patches, no change in current amplitudes was recognized (Fig. 2a and Supplementary Fig. 2a, b). Note, that patch integrity and channel regulation were tested with either 1 mM tetra-pentyl-ammonium (TPenA) and a short pHi activation step. Next, we conducted systematic cysteine scanning mutagenesis of the entire pCt and examined the effect of charged and aliphatic MTS probes. […] Remarkably, all hit residues face toward the inner leaflet of the lipid bilayer (Fig. 2b, inlay).
(§1) Xenopus laevis oocytes were surgically removed from anesthetized adult females, treated with type II collagenase (Sigma-Aldrich/Merck, Germany) and manually defolliculated. […] Currents were recorded with an EPC10 amplifier (HEKA electronics, Germany) and sampled at 10 kHz or higher and filtered with 3 kHz (-3 dB) or higher as appropriate for the sampling rate. […]
The fold current increase (fold activation) of a ligand (decyl-MTS) was calculated from the following equation:1 FoldactivationFA=Iactivated/Ibasal with Iactivated represents the stable current level in the presence of 100 µM decyl-MTS and Ibasal the measured current before application of the MTS probe.

The target of the next experiment is T2, TREK-2* (Homo sapiens, UniProt P57789).
T2 sequence (P57789 67-355 isoform P57789-4): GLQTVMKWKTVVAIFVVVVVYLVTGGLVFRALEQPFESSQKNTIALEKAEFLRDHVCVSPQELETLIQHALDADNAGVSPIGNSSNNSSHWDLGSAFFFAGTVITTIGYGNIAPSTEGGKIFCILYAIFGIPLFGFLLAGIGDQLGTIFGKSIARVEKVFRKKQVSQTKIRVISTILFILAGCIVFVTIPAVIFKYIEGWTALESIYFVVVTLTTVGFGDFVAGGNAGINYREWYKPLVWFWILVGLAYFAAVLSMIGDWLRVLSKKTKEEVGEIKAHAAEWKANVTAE
Description: NFx inhibition, inside-out patch-clamp. Type of experiment: cell-based. Set-up: was truncated from WT and includes amino acids 67 - 355; expressed in transfected cells; host or cells: Xenopus laevis oocytes (cRNA injection, pFAW vector). Conditions: TREK-2* (amino acids 67 - 355), peer review file.
Description: In this study, the coding sequences of human K2P2.1 TREK-1 (Genbank accession number: NM_172042), rat K2P2.1 TREK-1 (NM_172041.2), human K2P10.1 TREK-2 (NM_021161) and human K2P4.1 TRAAK (AF247042) were used. For K^+ channel constructs expressed in Xenopus laevis oocytes the respective K^+ channel subtype coding sequences were subcloned into the dual-purpose vector pFAW. The TREK-2 construct with the extended pCt (TREK-2^*) was truncated from WT and includes amino acids 67 - 355. All mutant channels (point mutations) were obtained by site-directed mutagenesis with custom oligonucleotides. Vector DNA was linearized with NheI or MluI and cRNA synthesized in vitro using the SP6 or T7 AmpliCap Max High Yield Message Maker Kit (Cellscript, USA) and stored at −20 °C (for frequent use) and −80 °C (for long term storage).
as §1
For orientation: Patch clamp records ionic current or voltage across a cell membrane.

Consider two molecules from PMC11143257, “Atomistic mechanism of coupling between cytosolic sensor domain and selectivity filter in TREK K2P channels” (Nature Communications, 2024).

“Also recorded” adds a separate entry of the source. Counter-ions that a name gives are not always drawn.

With `CCCCCCCCCCSS(C)(=O)=O` [decyl-MTS, Decyl-MethaneThioSulfonate], on WT TRAAK, the “effect on current amplitude” value is listed as “no change; also recorded: no effect”. On to `NCCC(Oc1ccc(C(F)(F)F)cc1)c1ccccc1` (centres unmarked) [NFx, Norfluoxetine hydrochloride], for which the 50% inhibitory concentration (IC50) against TREK-2* was 3.2 ± 1 µM.

By IC50 is commonly meant the concentration that inhibits the measured activity by half.
